This data set can be described thus: in vitro. The note with it: human.

Values after ≈ are worked out from the molar mass of the structure shown.

In turn, `CC(C)c1ccc2c(c1)OC1(O)c3ccccc3/C(=N\N)C21O` (centres unmarked) [Example 152, 10-Hydrazono-7-isopropyl-9b,10-dihydro-4bH-benzo[d]indeno[1,2-b]furan-4b,9b-diol] returned a CC50 of 10.5 µg/mL (≈ 33.9 µM). Moreover, where the note is “Picorana CC50”, the CC50 was 0.9 µg/mL (≈ 2.9 µM).

On to `CC(C)c1ccc2c(c1)OC1(O)c3cccc(N)c3C(=O)C21NC(=O)c1cc2ccccn2c1` (centres unmarked) [Example 283, N-(1-Amino-4b-hydroxy-7-isopropyl-10-oxo-9b,10-dihydro-4bH-indeno[1,2-b]benzofuran-9b-yl) indolizine-2-carboxamide], for which the CC50 is greater than 10 µg/mL. Under “Picorana CC50”, this compound returned a CC50 of 5.47 µg/mL (≈ 12.1 µM).

For the setting “Picorana CC50”, `CC(C)c1ccc2c(c1)OC1(O)c3ccccc3C(=O)C21N` (centres unmarked) [Example 65, 9b-Amino-4b-hydroxy-7-isopropyl-4b,9b-dihydro-5-oxa-indeno[2,1-a]inden-10-one] came in with a CC50 of 18.2 µg/mL (≈ 61.6 µM).

For the setting “Picorana CC50”, `CC(C)C(=O)N1c2cc(C(C)C)ccc2C2(O)C(=O)c3ccccc3C12O` (centres unmarked) [Example 145, 4b,9b-Dihydroxy-5-isobutyryl-7-isopropyl-5,9b-dihydro-4bH-indeno[1,2-b]indol-10-one] had a CC50 of 18.3 µg/mL (≈ 50.2 µM).

For `CC(C)c1ccc2c(c1)OC1(O)c3ccc(N4CCC(O)CC4)cc3C(=O)C21O` (centres unmarked) [Example 146, 4b,9b-Dihydroxy-7-isopropyl-2-(hydroxypiperidinyl)-4bH-benzo[d]indeno[1,2-b]furan-10(9bH)-one], where the note is “Picorana CC50”, the CC50 turned out to be 1.53 µg/mL (≈ 3.87 µM).

On to `CC(=O)NC12C(=O)c3c(NC=O)cccc3C1(O)Oc1cc(C(C)C)ccc12` (centres unmarked) [Example 167, N-(1-Formamido-4b-hydroxy-7-isopropyl-10-oxo-9b,10-dihydro-4bH-benzo[d]-indeno[1,2-b]furan-9b-yl)acetamide], for which the CC50 is greater than 10 µg/mL.

`CC(C)c1ccc2c(c1)OC1(O)c3cccc(N)c3C(=O)C21NC(=O)NC(C)(C)C` (centres unmarked) [Example 165] displayed a CC50 greater than 10 µg/mL.

`CC(C)c1cc(C(C)C)c2c(c1)C1(N)C(=O)c3ccccc3C1(O)O2` (centres unmarked) [Example 68, 9b-Amino-4b-hydroxy-6,8-diisopropyl-4b,9b-dihydro-5-oxa-indeno[2,1-a]inden-10-one] gave a CC50 (Picorana CC50) of 8.94 µg/mL (≈ 26.5 µM).

As to `CCCCCCC(=O)NC12C(=O)c3c(N)cccc3C1(OC(=O)CCCCCC)Oc1cc(C(C)C)ccc12` (centres unmarked) [Example 99, 1-Amino-9b-heptanamido-7-isopropyl-10-oxo-9b,10-dihydro-4bH-benzo[d]indeno[1,2-b]furan-4b-yl heptanoate], the CC50 worked out at 7.7 µg/mL (≈ 14.4 µM). The CC50 (Picorana CC50) was greater than 50 µg/mL.

`CC(=O)N1c2cc(C)c(C)cc2C2(O)C(=O)c3ccccc3C12O` (centres unmarked) [Example 104, 5-Acetyl-4b,9b-dihydroxy-7,8-dimethyl-4b,5-dihydroindeno[1,2-b]indol-10(9bH)-one] showed a CC50 (Picorana CC50) greater than 50 µg/mL.

Turning to `CC(C)c1ccc2c(c1)OC1(O)c3cccc(N)c3C(=O)C21NC(=O)c1cc(C(C)C)nc2c1cnn2C(C)C` (centres unmarked) [Example 284, N-(1-Amino-4b-hydroxy-7-isopropyl-10-oxo-9b,10-dihydro-4bH-indeno[1,2-b]benzofuran-9b-yl)-1,6-diisopropyl-1H-pyrazolo[3,4-b]pyridine-4-carboxamide], the CC50 was determined as 3.71 µg/mL (≈ 6.88 µM). For the same compound, the CC50 (Picorana CC50) came out at 4.56 µg/mL (≈ 8.45 µM).

As for `CC(C)c1ccc2c(c1)OC1(O)c3cccc(N)c3C(=O)C21NC(=O)C1c2ccccc2Oc2ccccc21` (centres unmarked) [Example 237, N-(1-Amino-4b-hydroxy-7-isopropyl-10-oxo-9b,10-dihydro-4bH-benzo[d]indeno[1,2-b]furan-9b-yl)-9H-xanthene-9-carboxamide], the CC50 is greater than 10 µg/mL. In addition, the CC50 (Picorana CC50) was 6.27 µg/mL (≈ 12.1 µM).

For the setting “Picorana CC50”, `CO[C@@]12Oc3cc(C(C)C)ccc3[C@]1(NC(N)=O)C(=O)c1ccccc12` [Example 100, 1-((4bS,9bS)-7-Isopropyl-4b-methoxy-10-oxo-9b,10-dihydro-4bH-indeno[1,2-b]benzofuran-9b-yl)urea] registered a CC50 of 40.6 µg/mL (≈ 115 µM).

`CC(C)c1ccc2c(c1)OC1(O)c3ccccc3C(=O)C21NC(=O)c1cc2ccccc2[nH]1` (centres unmarked) [Example 208, N-(4b-hydroxy-7-isopropyl-10-oxo-9b,10-dihydro-4bH-indeno[1,2-b]benzofuran-9b-yl)-1H-indole-2-carboxamide] registered a CC50 greater than 10 µg/mL.

`CC(C)c1ccc2c(c1)OC1(O)c3cccc(N)c3C(=O)C21NC(=O)c1ccc2nccnc2c1` (centres unmarked) [Example 277, N-(1-Amino-4b-hydroxy-7-isopropyl-10-oxo-9b,10-dihydro-4bH-indeno[1,2-b]benzofuran-9b-yl)quinoxaline-6-carboxamide]: the CC50 is greater than 10 µg/mL.

`CC(C)c1ccc2c(c1)OC1(O)c3cccc(N)c3C(=O)C21NC(=O)c1cccc2cccnc12` (centres unmarked) [Example 202, N-(1-Amino-4b-hydroxy-7-isopropyl-10-oxo-9b,10-dihydro-4bH-indeno[1,2-b]benzofuran-9b-yl)quinoline-8-carboxamide] gave a CC50 of 3.24 µg/mL (≈ 6.96 µM). This compound also displayed a CC50 (Picorana CC50) of 9.6 µg/mL (≈ 20.6 µM).

Regarding `Cc1c(C(=O)NC23C(=O)c4c(N)cccc4C2(O)Oc2cc(C(C)C)ccc23)cnc2ccnn12` (centres unmarked) [Example 289, N-(1-Amino-4b-hydroxy-7-isopropyl-10-oxo-9b,10-dihydro-4bH-indeno[1,2-b]benzofuran-9b-yl)-7-methylpyrazolo[1,5-a]pyrimidine-6-carboxamide], the CC50 is greater than 10 µg/mL.

Under “Picorana CC50”, `CC(=O)N1c2ccccc2C2(N)C(=O)c3ccccc3C12O` (centres unmarked) [Example 108, 5-Acetyl-9b-amino-4b-hydroxy-5,9b-dihydro-4bH-indeno[1,2-b]indol-10-one] returned a CC50 of 1.81 µg/mL (≈ 6.15 µM).

On to `CO[C@@]12C(=O)c3ccccc3[C@]1(O)Oc1cc(C(C)C)ccc12` [Example 98, (4bS,9bS)-4b-Hydroxy-7-isopropyl-9b-methoxy-4bH-indeno[1,2-b]benzofuran-10(9bH)-one], for which the CC50 (Picorana CC50) was determined as 7.8 µg/mL (≈ 25.1 µM).

For `CC(C)c1ccc2c(c1)OC1(O)c3cccc(N)c3C(=O)C21NC(=O)c1sc2ccccc2c1Br` (centres unmarked) [Example 264], the CC50 was greater than 10 µg/mL.

The compound `CCCCCCC(=O)NC12C(=O)c3ccccc3C1(OC(=O)CCCCCC)Oc1cc(C(C)C)ccc12` (centres unmarked) [Example 92, Heptanoic acid 9b-heptanoylamino-7-isopropyl-10-oxo-9b,10-dihydro-5-oxa-indeno[2,1-a]inden-4b-yl ester] yielded a CC50 (Picorana CC50) greater than 50 µg/mL.

`CC(C)c1ccc2c(c1)OC1(O)c3ccc([N+](=O)[O-])c(N)c3C(=O)C21O` (centres unmarked) [Example 60, 1-Amino-4b,9b-dihydroxy-7-isopropyl-2-nitro-4bH-indeno[1,2-b]benzofuran-10(9bH)-one] gave a CC50 (Picorana CC50) of 10.6 µg/mL (≈ 29.6 µM).

On to `CC(C)c1ccc2c(c1)OC1(O)c3ccccc3C(=O)C21NC(=O)c1nc2ccccc2[nH]1` (centres unmarked) [Example 227, N-(4b-hydroxy-7-isopropyl-10-oxo-9b,10-dihydro-4bH-benzo[d]indeno[1,2-b]furan-9b-yl)-1H-benzo[d]imidazole-2-carboxamide], for which the CC50 was greater than 10 µg/mL. The CC50 (Picorana CC50) turned out to be 9.62 µg/mL (≈ 21.9 µM).

With `CO/N=C1/c2ccccc2C2(NOC)Oc3cc(C(C)C)ccc3C12O` (centres unmarked) [Example 128, 9b-Hydroxy-7-isopropyl-4b-(methoxyamino)-4bH-indeno[1,2-b]benzofuran-10(9bH)-one O-methyl oxime], the CC50 (Picorana CC50) was 37.3 µg/mL (≈ 105 µM).

Regarding `CC(C)c1ccc2c(c1)OC1(O)c3ccccc3C(=O)C21NC(=O)c1ccc(=O)oc1` (centres unmarked) [Example 226, N-(4b-Hydroxy-7-isopropyl-10-oxo-9b,10-dihydro-4bH-benzo[d]indeno[1,2-b]furan-9b-yl)-2-oxo-2H-pyrane-5-carboxamide], the CC50 was greater than 10 µg/mL. This compound also gave a CC50 (Picorana CC50) of 28.2 µg/mL (≈ 67.5 µM).

Take `CC(C)c1cc(C(C)C)c2c(c1)C1(O)C(=O)c3ccccc3C1(O)O2` (centres unmarked) [Example 64, 4b,9b-Dihydroxy-6,8-diisopropyl-4b,9b-dihydro-5-oxa-indeno[2,1-a]inden-10-one]: the CC50 (Picorana CC50) turned out to be 8.13 µg/mL (≈ 24 µM).

Compound `CCCCC(=O)NC12C(=O)c3c(N)cccc3C1(O)Oc1cc(C(C)C)ccc12` (centres unmarked) [Example 78, Pentanoic acid (1-amino-4b-hydroxy-7-isopropyl-10-oxo-4b,10-dihydro-5-oxa-indeno[2,1-a]inden-9b-yl)-amide] showed a CC50 of 20.6 µg/mL (≈ 52.3 µM). For the setting “Picorana CC50”, the CC50 turned out to be 47.7 µg/mL (≈ 121 µM).

Under “Picorana CC50”, `CC(=O)Nc1c(N)ccc2c1C(=O)C1(O)c3ccc(C(C)C)cc3OC21O` (centres unmarked) [Example 59, N-(2-Amino-4b,9b-dihydroxy-7-isopropyl-10-oxo-9b,10-dihydro-4bH-benzo[d]indeno[1,2-b]furan-1-yl)acetamide] yielded a CC50 greater than 50 µg/mL.

For the compound `CC(C)c1ccc2c(c1)OC1(O)c3cccc(N)c3C(=O)C21NC(=O)Cc1ccc(-c2ccccc2)cc1` (centres unmarked) [Example 182, 2-([1,1′-Biphenyl]-4-yl)-N-(1-amino-4b-hydroxy-7-isopropyl-10-oxo-9b,10-dihydro-4bH-indeno[1,2-b]benzofuran-9b-yl)acetamide], the CC50 was 5.85 µg/mL (≈ 11.6 µM). In addition, the CC50 (Picorana CC50) came to 6.42 µg/mL (≈ 12.7 µM).

Take `CCCCCC(=O)NC12C(=O)c3ccccc3C1(OC(=O)CCCCC)Oc1cc(C(C)C)ccc12` (centres unmarked) [Example 91, Hexanoic acid 9b-hexanoylamino-7-isopropyl-10-oxo-9b,10-dihydro-5-oxa-indeno[2,1-a]inden-4b-yl ester]: under “Picorana CC50”, the CC50 is greater than 50 µg/mL.

`CC(C)c1ccc2c(c1)OC1(O)c3cccc(N)c3C(=O)C21NC(=O)c1cnccc1Cl` (centres unmarked) [Example 254, N-(1-Amino-4b-hydroxy-7-isopropyl-10-oxo-9b,10-dihydro-4bH-indeno[1,2-b]benzofuran-9b-yl)-4-chloronicotinamide] returned a CC50 greater than 10 µg/mL.

On to `COc1ccc(CN2CCN(c3ccc4c(c3)C(=O)C3(O)c5ccc(C(C)C)cc5OC43O)CC2)cc1` (centres unmarked) [Example 148, 4b,9b-Dihydroxy-7-isopropyl-2-(4-(4-methoxybenzyl)piperazin-1-yl)-4bH-benzo[d]indeno[1,2-b]furan-10(9bH)-one], for which the CC50 (Picorana CC50) was determined as 1.72 µg/mL (≈ 3.44 µM).

For `CC(=O)OC12C(=O)c3ccccc3C1(OC(C)=O)N(C(C)=O)c1cc(C)c(C)cc12` (centres unmarked) [Example 107, 5-Acetyl-7,8-dimethyl-10-oxo-4b,5,9b,10-tetrahydroindeno[1,2-b]indole-4b,9b-diyl diacetate], for the setting “Picorana CC50”, the CC50 was greater than 50 µg/mL.

`CO/N=C1/c2ccccc2C2(OC)Oc3cc(C(C)C)ccc3C12O` (centres unmarked) [Example 130, 9b-Hydroxy-7-isopropyl-4b-methoxy-4bH-indeno[1,2-b]benzofuran-10(9bH)-one O-methyl oxime] registered a CC50 (Picorana CC50) greater than 50 µg/mL.

Source of the values: US9890133B2 (priority 2011, dated 2018).
